The target of data set [1] is T1, RBM39 G268V-3xFLAG with CUL4 complex (Homo sapiens, UniProt Q14498+Q66K64, G268V).
T1 construct: lysate derived from parental cells, RBM39-3xFLAG cells, or RBM39 G268V-3xFLAG cells; endogenous in cells; host or cells: HCT-116 RBM39 G268V-3xFLAG cells (treated cells in A91; lysates in A95)
The data set is described as follows: Co-immunoprecipitation of RBM39 G268V-3xFLAG from treated cells. Type of data set: cell-based. The note with it: in the presence of indisulam. The procedure:
(§1) Anti-Flag M2 antibody (Sigma-Aldrich) was coupled to Dynabeads M-270 epoxy beads (Life Technologies) at the ratio of 10 μg of antibody/mg beads. […] Frozen cells were then pulverized in the a cryomill (Retsch) with one 25 mm steel ball and five cycles of three min at 25 Hz with intermittent cooling in liquid nitrogen. […] The lysates were centrifuged at 8000 g for 5 min at 4° C. 12 mg of conjugated Anti-Flag magnetic beads were mixed with clarified lysates for 5 min at 4° C. on a rotating platform, followed by three washes with IP buffer. Bound proteins were eluted with 1 mg/ml 3xFLAG peptide, followed by SDS-PAGE on a 10% Bis Tris gel. After brief electrophoresis, bands containing all the proteins were cut with clean blades. For western blotting of co-immunoprecipitated proteins, anti-DDA1 (ProteinTech, 14995-1-AP, 1:1000), anti-DDB1 (Abcam, ab109027, 1;10000), anti-CUL4A (Cell Signaling, 2699, 1:1000), anti-CUL4B (ProteinTech, 12916-1-AP, 1:1000) were used.

Data set [2] addresses T2, RBM39 G268V-3xFLAG (Homo sapiens, UniProt Q66K64).
T2 construct: expressed in transfected cells; host or cells: 293T
The experiment in a line: In vivo polyubiquitination of RBM39 G268V. Format: cell-based. To be noted: following indisulam treatment. The procedure:
cDNAs encoding RBM39-3xFLAG, RBM39 G268V-3xFLAG, and DCAF15-V5 were cloned into the pCDNA3.1+vector. pCMV 8XHis Ub was a gift from William Kaelin (Dana Farber Cancer Institute). 0.4 million 293T cells were seeded per well on 6-well plates and allowed to attach overnight. 250 ng of pCMV 8XHis Ub, 500 ng of pCDNA3-DCAF15-V5, 10 ng of either pCDNA3-RBM39-3xFLAG or pCDNA3-RBM39 G268V-3xFLAG were transfected. […] Cells were lifted from the plates by pipetting, pelleted by centrifugation, and washed once with PBS. Purification of His-Ub tagged proteins was performed as described (5).

For data set [3], the target named is T3, RBM39-3xFLAG with DDA1, DDB1, CUL4A (Homo sapiens, UniProt Q14498+Q66K64).
T3 construct: endogenous in cells; host or cells: HCT-116 RBM39-3xFLAG knock-in cells (treated cells in A90)
The data set is described as follows: In vitro formation of RBM39-CUL4-DCAF15 complex in lysates. Type of data set: binding. To be noted: indisulam dose-dependent manner. The procedure: First, we reconstituted formation of the RBM39-CUL4-DCAF15 complex in vitro (FIG. 4, panel A).
as §1

Data set [4] has as its system HCT-116 cells expressing wild type or mutant RBM39. The data set is described as follows: Transient transfection of RBM39 cDNA, crystal violet staining. To be noted: 2 μM indisulam. Type of data set: cell-based, human. As to the method: RBM39 was PCR amplified from U2OS cDNA and cloned into pLVX IRES zsGreen1 (Clontech). Mutagenesis of RBM39 was performed using Q5 site-directed mutagenesis kit (NEB) and primers were designed using the NEBaseChanger web server (nebasechanger.neb.com/). For transient transfection, 0.1 million HCT-116 cells were seeded per well in a 12-well plate on day 1. On day 2, cells were transfected with 1 μg of plasmid (pLVX IRES zsGreen containing wild type or mutant RBM39). […] For crystal violet staining, cells on plates were stained with 0.05% crystal violet, 1% formaldehyde in 1×PBS for 20 min at room temperature, followed by several rinses with deionized water to remove free stain.

The subject of data set [5] is tumors derived from HCT-116 cells expressing RBM39 G268V. The data set is described as follows: Mouse xenograft model, HCT-116 RBM39 G268V. Format: in vivo, Nod-Scid IL-2Rγ KO mice. As to the method: (§2) All animal work was approved by the Institutional Animal Care and Use Committee at UTSW. UTSW is accredited by the Association for Assessment and Accreditation of Laboratory Animal Care International (AAALAC). Animals were obtained from the UTSW Breeding Core Facility. Nod-Scid IL-2Rγ KO mice were implanted with 5 million parental HCT-116 cells or HCT-116 cells expressing RBM39 G268V in a volume of 0.1 ml in the left flank. Tumor volumes were measured every 2-4 days with calipers. Volume is calculated as (L*W^2)*3.14)/6.

In data set [6] the test system is tumors derived from parental HCT-116 cells. The data set is described as follows: Mouse xenograft model, parental HCT-116. Format: in vivo, Nod-Scid IL-2Rγ KO mice. The procedure: as §2
Data set [7] addresses T4, RBM39 (Homo sapiens, UniProt Q14498+Q66K64).
T4 construct: triggers the degradation of RBM39 in parental HCT-116 cells; endogenous in cells; host or cells: HCT-116
The experiment in a line: RBM39 degradation in cells (western blotting). To be noted: HCT-116 cells; dose dependent, evident as early as two hours after treatment. Format: cell-based. As to the method: Proteins were resolved on SDS-PAGE and transferred to 0.5 μm nitrocellulose membranes. Membranes were blocked in 5% milk TBST for 30 min, and then anti-RBM39 antibodies (HPA001591, Sigma-Aldrich) were added in 5% milk (1:5000) and incubated on a shaker overnight at 4° C. After three 5 min washes with TBST, membranes were incubated with HRP-conjugated goat anti-rabbit secondary antibody (Bio-Rad) for 2 hr at room temperature. After three 5 min washes with TBST, membranes were developed with ECL (enhanced chemiluminescence) substrates.
In general terms: Immunoblotting shows a protein as a band on a membrane.

Entries after “also recorded” stand apart in the source; their conditions may differ.

Turning to `NS(=O)(=O)c1ccc(S(=O)(=O)Nc2cccc3c(Cl)c[nH]c23)cc1` [Indisulam, indisulam], the “recruitment of RBM39 G268V to the CUL4 complex” value in data set [1] is “not recruited”. Also, the “RBM39 G268V ubiquitination” value in data set [2] is reported as “not ubiquitinated”. In addition, the “co-purification of DDA1, DDB1, CUL4A with RBM39-3xFLAG in lysates” value in data set [3] was “co-purified”. In addition, the entries for the “cell survival (crystal violet)” value in data set [4] (mock-transfected or wild type RBM39) and in data set [4] (transient expression of eight different RBM39 mutants) were “not indisulam resistant” and “conferred resistance”, respectively. Also, the tumor response entry is “grew at a rate indistinguishable from that of the control group; also recorded: resistant” in data set [5] (25 mg/kg indisulam intravenous once a day for eight days, RBM39 G268V) and “complete regression; also recorded: regress” in data set [6] (25 mg/kg indisulam intravenous once a day for eight days). For the same compound, the “Average maximal weight loss from start of therapy to 1 day post final dose” value in data set [5] (G268V xenograft, 25 mg/kg once a day for eight days) is 8.4%; in data set [6] (parental HCT-116 xenograft, 25 mg/kg once a day for eight days), 5.2%. In addition, the “amount of RBM39 protein” value in data set [7] is recorded as “reduced”.

(Values after patent US20180140578A1, “METHODS AND COMPOSITIONS FOR THE DIAGNOSIS AND SELECTIVE TREATMENT OF CANCER” (Board of Regents of the University of Texas System, priority 2016, published 2018).)
